Experimental data taken from PMC9935382, “Sorting nexin-dependent therapeutic targeting of oncogenic epidermal growth factor receptor” (Cancer Gene Therapy, 2022).
“Also recorded” adds a separate entry of the source.

Columns and labels:
BT20 cells = assay: BT20 mammosphere formation; type: cell-based
Method: 20,000 BT20 cells were suspended in mammosphere media (15 mL Mammocult media supplemented with 1.7 mL Proliferation supplement, 1.5 μL hydrocortisone, 30 μL heparin, and 150μL penicillin/streptomycin) and plated onto a low adhesion 6-well plate. After one week the number of spheres per well were counted. Cells from selected wells were then dissociated in trypsin EDTA and plated with fresh mammosphere media to develop secondary mammospheres.
Cells were then fractionated and verified by HSP90 cytosolic protein, Bap31 membrane protein, or HDAC nuclear protein. […] After the second week, the number of secondary mammospheres were counted.
These spheres were then disassociated and re-plated to form secondary mammospheres.

T47D cells = assay: MTT cell viability, T47D; type: cell-based; settings: 3 days, ER+ breast cancer line
Method: (§1) 2 × 10^3 cells were plated per well in a 96 well plate and left to adhere overnight. The following day, drug treatments were started and continued for 3 days. To measure the viability of the remaining cell population, 10% 3-(4,5-dimethylthiazol-2-yl)-2,5-diphenyltetrazolium (MTT) in media was added and incubated for 2 hours and conversion of MTT to formazan at 540 nm using a biotech Synergy LX plate reader.
(§2) A–G Cells were plated in a 96-well plate at 2000 cells per well. […] Cell viability was then measured with an MTT assay, viability of treated cells were compared with the vehicle control. H MDA-MB-468 cells were plated and incubated+/− IPTG for 2 days prior to drug treatment to induce expression of an EGFR-targeted shRNA.

[1] = system: EGFRkin / SNX1 BAR domain; assay: Competitive binding assay, SNX BAR / EGFRkin; parameters: species or system human; settings: 2.5 μM peptide; data not shown
H1975 cells = assay: MTT cell viability, H1975; type: cell-based; settings: EGFR driver mutation T790M, 3 days
Method: as §1, §2

MCF10A cells = assay: MTT cell viability, MCF10A; type: cell-based; settings: immortalized breast epithelial line, 3 days
Method: as §1, §2

[2] = system: mammary tumors of WAP-TGFα transgenic mice; assay: Tumor growth in WAP-TGFα transgenic mice; type: in vivo, mouse
Method: Statistics for the animal model was performed by the University of Arizona Cancer Center Biostatistics and Bioinformatics Shared Resources (BBSR). The cube root of the observed tumor burden was applied to normalize the raw values. […] For all cell culture experiments error bars represent the standard error of the mean across 3 experimental replicates.
The transgenic mouse line WAP-TGFα (The Jackson Laboratory; Tg(WapTgfa)215Bri) were back crossed to C57BL/6 J background (N8). WAP-TGFα heterozygous males were bred with C57BL/6 J females to generate study animals and offspring were genotyped using primers against the WAP-TGFα transgene. WAP-TGFα heterozygous females were housed continuously with C57Bl/6 J males to induce pregnancy, resulting in transgene expression. […] To ensure randomized treatment arms we added mice to alternating treatment arms as they developed tumors, starting with the control cPTD4 arm. When a second mouse from the same litter developed a tumor, that animal was added to the opposite arm from its litter mate. The researchers were not blinded to the treatment arms. […] Once entered, mice were weighed, tumors measured, and injections given intravenously at 10 μg/g body weight 3x/week for 4 weeks. […] Upon sacrifice, all tumors were collected and fixed in 10% formalin; a portion of each tumor was homogenized in tissue lysis buffer to form tissue protein lysates. Tissues were paraffin-embedded and sectioned by the Tissue Acquisition and Cell Molecular Analysis Shared Resource at the University of Arizona Cancer Center. The University of Arizona IACUC committee performs oversite of animal experimental protocols with coordination from a veterinarian in compliance with AAALAC.
When tumors reached >100 mm^3, IV injections began at 3X/week, 10 μg/g body weight and tumors were measured 3X/week with calipers. Animals were injected for 4 weeks or until they reached maximal tumor burden, defined as a total tumor volume >2000 mm^3 or an individual tumor measuring >2 cm in diameter. […] The WAP-TGFα is a spontaneous model in which each tumor arises and progresses in a heterogeneous fashion. […] In this study, mice were sacrificed after 4 weeks of injections or once they reached tumor burden, represented by the Kaplin-Meyer graph (Fig. 2B).
Mice were bred continuously to induce transgene expression and palpated weekly for tumor formation. […] A Changes in tumor size from entry into study until end of study are shown for each individual tumor, (*) indicate tumors that entered the study at size greater than 500 mm^3, all other tumors entered the study at ~100 mm^3. B a Kaplan-Meier survival curve was generated showing when mice were sacrificed by either reaching tumor burden (2000 mm^3) or the end of the study (p = 0.0002). C Upon sacrifice tumors were harvested and fixed in 10% formalin and embedded in paraffin. FFPE blocks were sectioned at […] and stained with hematoxylin and eosin and imaged at 20x. D Protein lysates were generated from tumors upon the sacrifice and probed for the indicated proteins.

CC[C@H](C)[C@H](NC(=O)[C@@H](NC(=O)[C@H](Cc1c[nH]cn1)NC(=O)[C@H](CC(N)=O)NC(=O)[C@H](CCCCN)NC(=O)[C@H](C)NC(=O)[C@H](CCCNC(=N)N)NC(=O)[C@H](C)NC(=O)[C@H](CCC(N)=O)NC(=O)[C@H](CCCNC(=N)N)NC(=O)[C@H](C)NC(=O)[C@H](C)NC(=O)[C@H](C)NC(=O)[C@H](CCCNC(=N)N)NC(=O)[C@H](C)NC(=O)[C@H](Cc1ccc(O)cc1)NC(C)=O)C(C)C)C(=O)N[C@@H](CCCCN)C(=O)N[C@@H](Cc1ccc(O)cc1)C(=O)N[C@@H](CC(C)C)C(=O)N[C@@H](CCC(=O)O)C(=O)N[C@H](C(=O)N[C@@H](CC(C)C)C(=O)N[C@@H](CC(C)C)C(=O)N[C@@H](Cc1ccc(O)cc1)C(=O)N[C@@H](CO)C(=O)N[C@@H](CCC(N)=O)C(=O)N[C@@H](CCC(N)=O)C(=O)N[C@@H](CCC(N)=O)C(=O)N[C@@H](CC(C)C)C(=O)N[C@@H](C)C(=O)N[C@@H](CCCCN)C(=O)N[C@@H](Cc1ccc(O)cc1)C(=O)N[C@@H](Cc1c[nH]c2ccccc12)C(=O)N[C@@H](CCC(=O)O)C(=O)N[C@@H](C)C(=O)N[C@@H](Cc1ccccc1)C(=O)N[C@@H](CC(C)C)C(N)=O)[C@@H](C)O [cSNX1.3]
primary mammosphere formation (BT20 cells; 1 week treatment, low adhesion plate): no mammospheres were formed | secondary mammosphere formation, treated in the first week (BT20 cells; cSNX1.3 in first week, then cPTD4 or vehicle in second week): reduction in sphere formation | secondary mammosphere formation, treated in the second week (BT20 cells; treated during second week): no mammosphere formation | sensitivity (cell viability) (T47D cells): sensitive | inhibition of SNX BAR binding to EGFRkin [1]: blocks SNX BAR binding to EGFRkin | effect on cell viability (H1975 cells): minimal effect | impact on cell viability / growth (MCF10A cells): almost no impact | tumor response ([2]; 10 μg/g IV 3X/week, up to 4 weeks): significant tumor regression; also recorded: significant reduction in tumor growth; also recorded: several tumors completely regress | average tumor regression rate ([2]; 10 μg/g IV 3X/week, up to 4 weeks, n = 11 tumors): 4 mm^3/day | average tumor growth rate ([2]; 10 μg/g body weight IV 3X/week, up to 4 weeks, cPTD4 n = 14 tumors, cSNX1.3 n = 11 tumors): -4 mm^3/day | mice that reached tumor burden ([2]; mice of total before end of the study, total tumor volume >2000 mm^3 or individual tumor >2 cm): 1/6 | tumors fully regressed ([2]; number of tumors, calipers and confirmed during necropsy, 10 μg/g IV 3X/week): 3 | tumors that demonstrated growth ([2]; number or proportion of tumors at end of study, the 2 growing cSNX1.3 tumors entered at greater than 500 mm^3): 2 | tumors with no change in tumor volume ([2]; tumors of total, first to last measurement, 10 μg/g IV 3X/week): 2/11 | tumors regressed ([2]; tumors of total, 10 μg/g IV 3X/week, up to 4 weeks): 7/11
